Assay results reported in patent publication US12264158B2, “Protein kinase MKK4 inhibitors for promoting liver regeneration or reducing or preventing hepatocyte death” (HEPAREGENIX GMBH, priority 2018, dated 2025).

Key:
MKK4 = molecular target: T1, MKK4 (Homo sapiens, UniProt P45985); experiment: KINOMEscan competition binding assay, MKK4 potency; settings: concentration of 100 nM
T1 construct: S84/D399; host or cells: HEK-293
T1 sequence (P45985 84-399): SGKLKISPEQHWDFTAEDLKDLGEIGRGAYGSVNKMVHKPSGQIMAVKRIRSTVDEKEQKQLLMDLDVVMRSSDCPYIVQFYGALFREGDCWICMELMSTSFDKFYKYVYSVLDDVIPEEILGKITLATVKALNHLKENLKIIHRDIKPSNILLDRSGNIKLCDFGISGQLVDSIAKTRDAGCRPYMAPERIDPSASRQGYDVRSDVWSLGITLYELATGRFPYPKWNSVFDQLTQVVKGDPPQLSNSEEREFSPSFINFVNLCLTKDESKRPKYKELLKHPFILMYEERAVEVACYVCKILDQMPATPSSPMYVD
Procedure: (§1) The assay was performed by combining three components: DNA-tagged kinase; immobilized ligand; and a test compound. The ability of the test compound to compete with the immobilized ligand was measured via quantitative PCR of the DNA tag. The technology is described in detail in Fabian, M. A. et al. A small molecule-kinase interaction map for clinical kinase inhibitors. Nat. […] M. W. et al. A quantitative analysis of kinase inhibitor selectivity, Nat.
(§2) For investigation of the affinity to MKK4, MKK7 and JNK1, the kinases were produced in HEK-293 cells and subsequently tagged with DNA for qPCR detection. […] The liganded beads were blocked with excess biotin and washed with blocking buffer (SEABLOCK™ (Pierce), 1% BSA, 0.05% TWEEN®20, 1 mM DTT) to remove unbound ligand and to reduce nonspecific binding. […] All reactions were performed in polystyrene 96-well plates in a final volume of 0.135 mL. […] The kinase concentration in the eluates was measured by qPCR.
(§3) The test compounds were provided as 10 mM stock solutions. The test solutions at indicated final concentrations were prepared at DiscoverX.

BRaf = BRaf (Homo sapiens, UniProt P15056); experiment: KINOMEscan competition binding assay, selectivity against off-target BRaf; settings: concentration of 100 nM
Sequence of BRaf (P15056 whole entry): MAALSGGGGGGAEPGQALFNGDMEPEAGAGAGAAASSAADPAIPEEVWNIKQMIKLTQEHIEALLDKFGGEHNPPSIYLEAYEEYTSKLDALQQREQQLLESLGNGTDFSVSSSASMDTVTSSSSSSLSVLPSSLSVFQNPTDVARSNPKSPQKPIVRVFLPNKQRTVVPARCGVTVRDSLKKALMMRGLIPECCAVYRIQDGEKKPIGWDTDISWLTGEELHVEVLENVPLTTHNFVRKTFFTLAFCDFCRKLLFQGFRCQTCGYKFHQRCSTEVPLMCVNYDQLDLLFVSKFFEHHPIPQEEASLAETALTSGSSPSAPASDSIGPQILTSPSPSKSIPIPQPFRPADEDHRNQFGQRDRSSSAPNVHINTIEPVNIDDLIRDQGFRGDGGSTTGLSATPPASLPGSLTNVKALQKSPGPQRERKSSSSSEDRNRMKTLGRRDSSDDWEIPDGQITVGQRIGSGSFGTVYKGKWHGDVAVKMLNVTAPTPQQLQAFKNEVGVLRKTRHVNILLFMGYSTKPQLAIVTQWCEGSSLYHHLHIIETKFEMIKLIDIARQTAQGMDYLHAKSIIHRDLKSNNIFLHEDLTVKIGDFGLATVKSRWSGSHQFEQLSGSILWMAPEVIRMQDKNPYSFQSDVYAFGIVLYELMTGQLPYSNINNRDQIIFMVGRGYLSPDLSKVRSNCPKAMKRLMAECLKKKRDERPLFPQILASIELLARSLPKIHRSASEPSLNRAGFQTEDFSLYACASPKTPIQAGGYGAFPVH
Procedure: as §1, §3

JNK1 = molecular target: T2, JNK1 (Homo sapiens, UniProt P45983); experiment: KINOMEscan competition binding assay, selectivity against off-target JNK1; settings: concentration of 100 nM
T2 construct: M1/Q384; host or cells: HEK-293
T2 sequence (P45983 1-384 isoform P45983-2): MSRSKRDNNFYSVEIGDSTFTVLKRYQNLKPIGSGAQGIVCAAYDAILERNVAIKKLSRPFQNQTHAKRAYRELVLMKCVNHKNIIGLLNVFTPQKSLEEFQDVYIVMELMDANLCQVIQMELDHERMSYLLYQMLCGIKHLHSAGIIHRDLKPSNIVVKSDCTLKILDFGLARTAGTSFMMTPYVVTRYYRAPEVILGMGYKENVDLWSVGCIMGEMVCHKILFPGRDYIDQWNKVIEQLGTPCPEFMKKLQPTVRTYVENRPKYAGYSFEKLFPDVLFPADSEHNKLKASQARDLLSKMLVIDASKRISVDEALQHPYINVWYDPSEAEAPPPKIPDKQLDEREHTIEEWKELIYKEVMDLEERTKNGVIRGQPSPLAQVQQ
Procedure: as §1, §2, §3

MKK4 active = molecular target: T3, MKK4 active (Homo sapiens, UniProt P45985); experiment: Radiometric protein kinase assay, MKK4 active; format: biochemical; settings: substrate JNK1 KRKR, ATP 0.2 μM, read-out: MKK4, potency derived from IC50-values
T3 construct: purchased ProQinase #0948-0000-1
T3 sequence (P45985 1-399): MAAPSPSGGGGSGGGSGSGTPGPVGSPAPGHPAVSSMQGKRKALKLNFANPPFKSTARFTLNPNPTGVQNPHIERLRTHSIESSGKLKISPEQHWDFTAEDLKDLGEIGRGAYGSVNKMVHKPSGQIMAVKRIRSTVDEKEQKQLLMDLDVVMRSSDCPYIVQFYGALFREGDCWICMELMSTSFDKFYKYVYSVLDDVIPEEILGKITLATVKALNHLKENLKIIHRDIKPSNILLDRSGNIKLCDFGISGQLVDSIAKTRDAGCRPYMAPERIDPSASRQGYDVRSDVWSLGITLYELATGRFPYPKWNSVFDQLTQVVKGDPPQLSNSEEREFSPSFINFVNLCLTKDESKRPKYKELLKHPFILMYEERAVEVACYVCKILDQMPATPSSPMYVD
Procedure: (§4) A radiometric protein kinase assay was used for measuring the kinase activity of the respective protein kinases. All kinase assays were performed in 96-well polypropylene plates. After the reactions were stopped, the assay mixtures were transferred to 96-well MSFC filter-plates (Millipore). The reaction mix was passed through the filter membrane by aspiration, the membrane was washed 3 times with 150 mM H3PO4, once with ethanol, dried and liquid scintillation cocktail was added. Radioactivity was determined by counting of the samples in a Microbeta multiwell scintillation counter (Wallac).

MKK7 = molecular target: T4, MKK7 (Homo sapiens, UniProt O14733); experiment: KINOMEscan competition binding assay, selectivity against off-target MKK7; settings: concentration of 100 nM
T4 construct: M1/R419; host or cells: HEK-293
T4 sequence (O14733 1-419): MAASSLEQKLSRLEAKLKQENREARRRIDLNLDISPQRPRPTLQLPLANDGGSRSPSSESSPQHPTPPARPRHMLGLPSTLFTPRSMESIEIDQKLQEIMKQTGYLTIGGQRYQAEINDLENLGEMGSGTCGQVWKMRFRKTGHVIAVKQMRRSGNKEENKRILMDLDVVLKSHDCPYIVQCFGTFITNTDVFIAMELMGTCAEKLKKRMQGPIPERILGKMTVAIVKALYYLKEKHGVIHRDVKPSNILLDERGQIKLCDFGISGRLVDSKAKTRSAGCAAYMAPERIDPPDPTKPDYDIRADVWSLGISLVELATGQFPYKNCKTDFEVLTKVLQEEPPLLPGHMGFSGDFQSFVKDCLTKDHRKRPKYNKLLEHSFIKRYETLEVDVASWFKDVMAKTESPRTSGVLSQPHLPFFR
Procedure: as §1, §2, §3

MEKK2 = molecular target: T5, MEKK2 (Homo sapiens, UniProt Q9Y2U5); experiment: Radiometric protein kinase assay, MEKK2; format: biochemical; settings: substrate Casein, ATP 0.2 μM; read-out: MEKK2, potency derived from IC50-values
T5 construct: purchased ProQinase #0583-0000-1
T5 sequence (Q9Y2U5 1-619): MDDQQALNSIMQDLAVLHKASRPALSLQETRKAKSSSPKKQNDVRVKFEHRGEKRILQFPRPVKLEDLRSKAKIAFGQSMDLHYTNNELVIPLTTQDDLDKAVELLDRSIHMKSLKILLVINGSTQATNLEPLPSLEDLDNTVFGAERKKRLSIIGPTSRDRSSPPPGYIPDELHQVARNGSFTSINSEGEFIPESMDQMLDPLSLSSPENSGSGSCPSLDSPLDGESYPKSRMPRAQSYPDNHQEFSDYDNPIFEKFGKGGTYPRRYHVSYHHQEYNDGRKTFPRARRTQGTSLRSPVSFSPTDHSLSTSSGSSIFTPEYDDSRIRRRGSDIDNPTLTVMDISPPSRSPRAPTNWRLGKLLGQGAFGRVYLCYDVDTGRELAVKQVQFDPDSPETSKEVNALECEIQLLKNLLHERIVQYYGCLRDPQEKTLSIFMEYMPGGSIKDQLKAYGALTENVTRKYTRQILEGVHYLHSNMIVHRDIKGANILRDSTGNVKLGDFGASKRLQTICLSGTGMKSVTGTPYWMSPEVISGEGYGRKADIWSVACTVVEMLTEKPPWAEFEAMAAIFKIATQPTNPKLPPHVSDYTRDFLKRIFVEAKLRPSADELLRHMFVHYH
Procedure: as §4

Row | Structure (SMILES) | IC50 (MKK4 active) | IC50 (MEKK2) | further results
1 | CCCS(=O)(=O)Nc1c(F)ccc(C(=O)c2n[nH]c3ncc(-c4ccc(C(=O)O)cc4)cc23)c1F [Example 62, 4-(3-(2,4-difluoro-3-(propylsulfon-amido)benzoyl)-1H-pyrazolo[3,4-b]pyridin-5-yl)benzoic acid] | < 0.5 µM | – | MKK4, residual percent of control binding (PoC) (MKK4): +++ (PoC < 1); Selectivity vs. BRaf, ratio PoC(BRaf)/PoC(MKK4) (BRaf): +++ (PoC(BRaf)/PoC(MKK4) ≥ 30); Selectivity vs. JNK1, ratio PoC(JNK1)/PoC(MKK4) (JNK1): +++ (PoC(JNK1)/PoC(MKK4) ≥ 30); Selectivity vs. MKK7, ratio PoC(MKK7)/PoC(MKK4) (MKK7): +++ (PoC(MKK7)/PoC(MKK4) ≥ 30)
2 | CS(=O)(=O)Nc1c(F)ccc(C(=O)c2n[nH]c3ncc(-c4ccc(S(N)(=O)=O)cc4)cc23)c1F [Example 54c, 4-[3-[2,4-difluoro-3-(methanesulfonamido)benzoyl]-1H-pyrazolo[3,4-b]pyridin-5-yl]benzenesulfonamide] | < 0.5 µM | – | –
3 | CS(=O)(=O)Nc1c(F)ccc(C(=O)c2n[nH]c3ncc(-c4ccc(C(N)=O)cc4)cc23)c1F [Example 54b, 4-[3-[2,4-difluoro-3-(methanesulfonamido)benzoyl]-1H-pyrazolo[3,4-b]pyridin-5-yl]benzamide] | < 0.5 µM | – | –
4 | CS(=O)(=O)Nc1c(F)ccc(C(=O)c2n[nH]c3ncc(-c4ccc(C(=O)O)cc4)cc23)c1F [Example 55, 4-[3-[2,4-difluoro-3-(methanesulfonamido)benzoyl]-1H-pyrazolo[3,4-b]pyridin-5-yl]benzoic acid] | < 0.5 µM | – | –
5 | CS(=O)(=O)Nc1c(F)ccc(C(=O)c2n[nH]c3ncc(-c4ccc(-c5nnn[nH]5)cc4)cc23)c1F [Example 54a, N-[2,6-difluoro-3-[5-[4-(1H-tetrazol-5-yl)phenyl]-1H-pyrazolo[3,4-b]pyridine-3-carbonyl]phenyl]methanesulfonamide] | < 0.5 µM | – | –
6 | CCCS(=O)(=O)Nc1c(F)ccc(C(=O)c2n[nH]c3ncc(-c4ccccc4Cl)cc23)c1F [Example 64, N-(3-(5-(2-chlorophenyl)-1H-pyrazolo[3,4-b]pyridine-3-carbonyl)-2,6-difluorophenyl)propane-1-sulfonamide] | < 0.5 µM | – | –
7 | O=C(c1ccc(F)c(NS(=O)(=O)Cc2ccccc2)c1F)c1n[nH]c2ncc(-c3ccncc3)cc12 [Example 68, N-[2,6-difluoro-3-(5-pyridin-4-yl-1H-pyrazolo[3,4-b]pyridine-3-carbonyl)phenyl]-1-phenylmethanesulfonamide] | < 0.5 µM | – | MKK4, residual percent of control binding (PoC) (MKK4): +++ (PoC < 1); Selectivity vs. BRaf, ratio PoC(BRaf)/PoC(MKK4) (BRaf): +++ (PoC(BRaf)/PoC(MKK4) ≥ 30); Selectivity vs. JNK1, ratio PoC(JNK1)/PoC(MKK4) (JNK1): +++ (PoC(JNK1)/PoC(MKK4) ≥ 30); Selectivity vs. MKK7, ratio PoC(MKK7)/PoC(MKK4) (MKK7): +++ (PoC(MKK7)/PoC(MKK4) ≥ 30)
8 | CCCS(=O)(=O)Nc1c(F)ccc(C(=O)c2n[nH]c3ncc(-c4ccc(O)cc4)cc23)c1F [Example 76, N-(2,6-difluoro-3-(5-(4-hydroxyphenyl)-1H-pyrazolo[3,4-b]pyridine-3-carbonyl)phenyl)propane-1-sulfonamide] | < 0.5 µM | – | –
9 | CCCCS(=O)(=O)Nc1ccc(F)c(C(=O)c2n[nH]c3ncc(-c4ccc(S(N)(=O)=O)cc4)cc23)c1F [Example 51c, 4-(3-(3-(butylsulfonamido)-2,6-difluorobenzoyl)-1H-pyrazolo[3,4-b]pyridin-5-yl) benzenesulfonamide] | – | 1 to 10 µM | –
10 | O=C(c1ccc(F)c(NS(=O)(=O)Cc2ccccc2)c1F)c1n[nH]c2ncc(-c3ccc(C4N=NN=N4)cc3)cc12 [Example 75, N-(3-(5-(4-(1H-tetrazol-5-yl)phenyl)-1H-pyrazolo[3,4-b]pyridine-3-carbonyl)-2,6-difluorophenyl)-1-phenylmethanesulfonamide] | – | 1 to 10 µM | –
11 | CCCS(=O)(=O)Nc1c(F)ccc(C(=O)c2n[nH]c3ncc(-c4ccc(F)cc4C)cc23)c1F [Example 66, N-(2,6-difluoro-3-(5-(4-fluoro-2-methylphenyl)-1H-pyrazolo[3,4-b]pyridine-3-carbonyl)phenyl) propane-1-sulfonamide] | – | 1 to 10 µM | –
12 | CCCS(=O)(=O)Nc1ccc(F)c(C(=O)c2n[nH]c3ncc(-c4ccc(NS(C)(=O)=O)cc4)cc23)c1F [Example 51g, N-(2,4-difluoro-3-(5-(4-(methylsulfonamido)phenyl)-1H-pyrazolo[3,4-b]pyridine-3-carbonyl)phenyl)propane-1-sulfonamide] | – | 1 to 10 µM | –
13 | CCCS(=O)(=O)Nc1c(F)ccc(C(=O)c2n[nH]c3ncc(-c4cnc(C(F)(F)F)nc4)cc23)c1F [Example 71, N-(2,6-difluoro-3-(5-(2-(trifluoromethyl)pyrimidin-5-yl)-1H-pyrazolo[3,4-b]pyridine-3-carbonyl)phenyl)propane-1-sulfonamide] | – | > 10 µM | –
14 | CCCS(=O)(=O)Nc1c(F)ccc(C(=O)c2n[nH]c3ncc(-c4ccc(Cl)cc4C)cc23)c1F [Example 72] | – | 1 to 10 µM | –
15 | CCCS(=O)(=O)Nc1ccc(F)c(C(=O)c2n[nH]c3ncc(-c4ccc(F)cc4C)cc23)c1F [Example 4, N-(2,4-difluoro-3-(5-(4-fluoro-2-methylphenyl)-1H-pyrazo-lo[3,4-b]-pyri-dine-3-car-bonyl)-phenyl)-propane-1-sulfonamide] | – | > 10 µM | –
